Where no end group is shown, it is not given here.
Test system: Angiogenesis in the CAM Model
Test: Chorioallantoic Membrane Angiogenesis (CAM) Model, branch points formation
Assay type: in vivo
From the text: VIP in Chorioallantoic Membrane Angiogenesis (CAM) Model
FIG. 15 depicts the results of testing regarding Nanoparticle encapsulates.

Vasoactive intestinal peptide (HSDAVFTDNYTRLRKQMAVKKYLNSILN-NH2) [VIP, peptide hormone containing 28 amino acid residues]
Total # of branches [VIP (1 ng/CAM) - PBS(average)], Mean (VIP 1 ng/CAM, PBS average subtracted): 34.8
Total # of branches [VIP (10 ng/CAM) - PBS(average)], Mean (VIP 10 ng/CAM, PBS average subtracted): 53.6
number of branches, Mean (VIP 0.1 ug/ml, 1 ng/CAM): 84.8
Total # of branches [VIP (100 ng/CAM) - PBS(average)], Mean (VIP 100 ng/CAM, PBS average subtracted): 71.7
number of branches, Mean (VIP 1 ug/ml, 10 ng/CAM): 103.6
number of branches, Mean (VIP 10 ug/ml, 100 ng/CAM): 121.7
